Experimental findings from patent US9695154B2, “Heteroaryl inhibitors of sumo activating enzyme” (MILLENNIUM PHARMACEUTICALS, INC., priority 2013, dated 2017) are described below.

pIC50: −log10 of the molar value.

In this experiment the target is T1, recombinant human SAE enzyme (Homo sapiens, UniProt Q9UBT2).
T1 sequence (Q9UBT2 1-640): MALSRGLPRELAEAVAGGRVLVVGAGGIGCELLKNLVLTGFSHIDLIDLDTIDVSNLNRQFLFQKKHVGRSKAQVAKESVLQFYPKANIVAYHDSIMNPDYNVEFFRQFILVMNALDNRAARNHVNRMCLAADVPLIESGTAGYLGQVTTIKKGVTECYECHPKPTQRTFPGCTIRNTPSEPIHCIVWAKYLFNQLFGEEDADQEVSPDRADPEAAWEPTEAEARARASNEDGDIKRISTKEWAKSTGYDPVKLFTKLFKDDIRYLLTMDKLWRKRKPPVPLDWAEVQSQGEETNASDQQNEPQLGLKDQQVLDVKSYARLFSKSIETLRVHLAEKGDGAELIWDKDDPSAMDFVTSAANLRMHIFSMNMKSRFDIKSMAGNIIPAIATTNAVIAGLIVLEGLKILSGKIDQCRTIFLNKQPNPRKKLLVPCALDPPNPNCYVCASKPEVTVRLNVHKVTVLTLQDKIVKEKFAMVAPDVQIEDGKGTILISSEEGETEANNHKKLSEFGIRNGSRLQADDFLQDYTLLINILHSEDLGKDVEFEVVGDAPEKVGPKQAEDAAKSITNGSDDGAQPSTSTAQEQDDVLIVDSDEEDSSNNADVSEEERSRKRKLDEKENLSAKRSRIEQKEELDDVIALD
T1 sequence (Q9UBE0 1-346 partner): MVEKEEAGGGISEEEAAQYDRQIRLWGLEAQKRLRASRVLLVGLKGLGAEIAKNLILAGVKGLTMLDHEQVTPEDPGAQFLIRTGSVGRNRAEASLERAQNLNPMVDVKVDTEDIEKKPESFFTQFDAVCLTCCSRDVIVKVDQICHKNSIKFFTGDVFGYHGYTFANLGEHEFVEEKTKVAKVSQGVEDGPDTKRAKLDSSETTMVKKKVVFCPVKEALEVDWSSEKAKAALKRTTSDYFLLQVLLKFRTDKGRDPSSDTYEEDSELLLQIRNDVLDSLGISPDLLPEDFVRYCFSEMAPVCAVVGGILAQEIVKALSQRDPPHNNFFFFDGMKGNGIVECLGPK
The experiment can be described thus: SAE HTRF Enzyme Assay. The following applies: for pIC50: class symbols A-C; for inhibition at 0.111 µM: compound concentration 0.111 μM, read-out: Percent Inhibition. The experiment is classed as biochemical. In outline: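 Reaction with 0.11 nM recombinant human SAE, 0.5 μM ATP, 0.01 μM Ubc9-GST, 0.125 μM Sumo-Flag in HEPES pH 7.5, MgCl2, GSH, BSA, 105 min at 24 °C. Stopped with EDTA/KF buffer carrying Eu-anti-Flag and anti-GST-APC; HTRF read after 2 h; % inhibition or IC50.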

Turning to `NS(=O)(=O)OC[C@H]1C[C@@H](Nc2ncncc2C(=O)c2ccn(Cc3c(F)c(F)c(F)c(F)c3F)n2)C[C@@H]1O` [Compound I-202, {(1R,2S,4R)-2-hydroxy-4-[(5-{[1-(pentafluorobenzyl)-1H-pyrazol-3-yl]carbonyl}pyrimidin-4-yl)amino]cyclopentyl}methyl sulfamate], the pIC50 was 7.00 to 8.00 and the inhibition at 0.111 µM is 83%.

Consider `NS(=O)(=O)OC[C@H]1C[C@@H](Nc2ncncc2C(=O)c2ccn(Cc3ccccc3)n2)C(F)(F)[C@@H]1O` [Compound I-203, [(1R,2R,4R)-4-({5-[(1-benzyl-1H-pyrazol-3-yl)carbonyl]pyrimidin-4-yl}amino)-3,3-difluoro-2-hydroxycyclopentyl]methyl sulfamate], for which the pIC50 is above 8.00 and the inhibition at 0.111 µM came to 94%.

For `NS(=O)(=O)OC[C@H]1C[C@@H](Nc2ncncc2C(=O)c2ccn(Cc3ccc(Cl)c(Br)c3)n2)[C@H](O)[C@@H]1O` [Compound I-204, {(1R,2R,3S,4R)-4-[(5-{[1-(3-bromo-4-chlorobenzyl)-1H-pyrazol-3-yl]carbonyl}pyrimidin-4-yl)amino]-2,3-dihydroxycyclopentyl}methyl sulfamate], the pIC50 was above 8.00 and the inhibition at 0.111 µM was 99%.

In the case of `NS(=O)(=O)OC[C@H]1C[C@@H](Nc2ncncc2C(=O)c2ccn(-c3ccccc3)n2)C[C@@H]1O` [Compound I-205, [(1R,2S,4R)-2-Hydroxy-4-({5-[(1-phenyl-1H-pyrazol-3-yl)carbonyl]pyrimidin-4-yl}amino)cyclopentyl]methyl sulfamate], the pIC50 is 7.00 to 8.00 and the inhibition at 0.111 µM amounted to 60%.

As for `NS(=O)(=O)OC[C@H]1C[C@@H](Nc2ncncc2C(=O)c2ccn(Cc3ccccc3Cl)n2)C[C@@H]1O` [Compound I-206, {(1R,2S,4R)-4-[(5-{[1-(2-chlorobenzyl)-1H-pyrazol-3-yl]carbonyl}pyrimidin-4-yl)amino]-2-hydroxycyclopentyl}methyl sulfamate], the negative logarithm of the IC50 (pIC50) is above 8.00 and the inhibition at 0.111 µM came to 96%.

Consider `NS(=O)(=O)OC[C@H]1C[C@@H](Nc2ncncc2C(=O)c2ccn(Cc3cc(Br)ccc3Cl)n2)[C@@H](F)[C@@H]1O` [Compound I-207, {(1R,2R,3R,4R)-4-[(5-{[1-(5-bromo-2-chlorobenzyl)-1H-pyrazol-3-yl]carbonyl}pyrimidin-4-yl)amino]-3-fluoro-2-hydroxycyclopentyl}methyl sulfamate], for which the pIC50 is above 8.00 and the inhibition at 0.111 µM is 99%.

Regarding `Cc1cc(Cn2ccc(C(=O)c3cncnc3N[C@@H]3C[C@H](COS(N)(=O)=O)[C@@H](O)[C@@H]3F)c2)on1` [Compound I-208, [(1R,2R,3R,4R)-3-fluoro-2-hydroxy-4-{[5-({1-[(3-methylisoxazol-5-yl)methyl]-1H-pyrrol-3-yl}carbonyl)pyrimidin-4-yl]amino)cyolopentyl]methyl sulfomate], the pIC50 is above 8.00 and the inhibition at 0.111 µM was determined as 95%.

As to `NS(=O)(=O)OC[C@H]1C[C@@H](Nc2ncncc2C(=O)c2ccn(Cc3ccc(C(F)(F)F)o3)c2)[C@@H](F)[C@@H]1O` [Compound I-209, [(1R,2R,3R,4R)-3-fluoro-2-hydroxy-4-({5-[(1-{[5-(trifluoromethyl)-2-furyl]methyl}-1H-pyrrol-3-yl)carbonyl]pyrimidin-4-yl}amino)cyclopentyl]methyl sulfamate], the pIC50 is above 8.00 and the inhibition at 0.111 µM stood at 99%.

For the molecule `Cc1ccc(Cn2ccc(C(=O)c3cncnc3N[C@@H]3C[C@H](COS(N)(=O)=O)[C@@H](O)C3)n2)cc1F` [Compound I-210, {(1R,2S,4R)-4-[(5-{[1-(3-Fluoro-4-methylbenzyl)-1H-pyrazol-3-yl]carbonyl}pyrimidin-4-yl)amino]-2-hydroxycyclopentyl}methyl sulfamate], the pIC50 was above 8.00 and the inhibition at 0.111 µM is 98%.
